Source: patent publication US5316767A, “Whitening cosmetic composition” (priority 1990, dated 1994)
Values after ≈ are worked out from the molar mass of the structure shown. Numbered stars: 1 amine (or outer) side, 2 acyl side, 3 side chain; on linkers, the order of the positions; unused ones are H or OH. Bridge positions count the residues as written; N and C are the ends. Square brackets hold non-standard residues; d marks the D form. Peptide text beside a SMILES is read from it. I, II: the chains in the order shown. γGlu = O=C(O)[C@H](CCC(=O)[*:2])N[*:1]

Assays:
[1] = tested on: B16-C melanoma cells; assay: Melanin formation inhibitory activity in B16-C melanoma cells (Experiment 2); type: cell-based, mouse
Protocol: After 2 ml of MEM medium (manufactured by Nissui Pharmaceutical Co.) (serum concentration of 5%) was added in a 6-well culture plate, mouse-derived B16-C melanoma cells were plated at 2×10^5 cells/well and test compounds were then separately added. B16-C melanoma cells were cultured at 37° C. in 5% CO2 incubator. On Day 3 and Day 5, the medium was exchanged and at the same time, the test compounds were separately added. On Day 7, the medium was removed. The cells were trypsinized and resuspended in PBS and pelleted by centrifugation. […] The protein content in the cells and the amount of melanin formed were determined, whereby the amount of melanin formed (μg) per protein content (mg) were calculated. The protein content and the amount of melanin formed were quantitatively determined by the method of Bradford et al. [Analytical Biochemistry, 72, 248-254 (1976)] and by measuring absorbance of the test solution at 470 nm [Cancer Research, 45, 1474-1478 (1985)], respectively.

[2] = physchem; settings: pH 6.5
[3] = physchem; settings: pH 6.5; remark: listed apart in the source
[4] = physchem; settings: water
[5] = Water solubility
[6] = Heat stability: residual rate after heating at 100° C. for 20 minutes; settings: pH 6.5
[7] = Storage stability: residual rate after allowing to stand at 40° C. for 30 days
[8] = 0.25 mM, first series (nothing added: 211.4 ± 11.45)
[9] = 0.5 mM, first series (nothing added: 211.4 ± 11.45)
[10] = 1.0 mM, first series (nothing added: 211.4 ± 11.45)

| remaining at 20 min, 10000 µM [2] | remaining at 720 h, 10000 µM [3] | solubility [4] | SMILES | Melanin Content/Protein Content [1, 8] | Melanin Content/Protein Content [1, 9] | Melanin Content/Protein Content [1, 10] | Activity for inhibiting melanin formation as compared with γ-L-glutamyl-L-cysteine disulfide and oxidized glutathione ([1]; Table 3) | solubility [5] | remaining at 20 min, 10000 µM [6] | Coloration ([7]; 40° C., 30 days, pH 6.5, 10 mM) | remaining at 720 h, 10000 µM ([7]; pH 6.5) | Melanin Content/Protein Content ([1]; 1.0 mM, second series (nothing added: 330.1 ± 22.5)) | Melanin Content/Protein Content ([1]; 2.0 mM, second series (nothing added: 330.1 ± 22.5)) | Inhibition of melanin formation in B16-C melanoma cells ([1]; Table 3) | Melanin Content/Protein Content ([1]; 2.0 mM, first series (nothing added: 211.4 ± 11.45)) |
| --- | --- | --- | --- | --- | --- | --- | --- | --- | --- | --- | --- | --- | --- | --- | --- |
| 100% | 100% | 142 mg/mL (≈ 520 mM) | OC[C@H]1O[C@@H](Oc2ccc(O)cc2)[C@H](O)[C@@H](O)[C@@H]1O [Arbutin] | 108.7 ± 13.04 µg/mg | 89.2 ± 13.48 µg/mg | growth inhibition | – | – | – | – | – | – | – | – | – |
| 70% | 0% | – | N[C@@H](CCC(=O)N[C@@H](CS)C(=O)NCC(=O)O)C(=O)O [Glutathione, γ-L-glutamyl-L-cysteinyl-glycine] | – | – | – | – | – | – | – | – | – | – | – | – |
| – | – | – | O=c1cc(CO)occ1O [Kojic acid] | 233.7 ± 14.37 µg/mg | 202.4 ± 11.49 µg/mg | 188.6 ± 9.93 µg/mg | poorer | 48.3 mg/mL (≈ 340 mM) | 100% | colored | 100% | – | – | – | – |
| 100% | 100% | > 200 mg/mL | CC(=O)N[C@@H](CCC(=O)N[C@@H](CSSC[C@H](NC(=O)CC[C@H](NC(C)=O)C(=O)O)C(=O)NCC(=O)O)C(=O)NCC(=O)O)C(=O)O [N,N'-diacetyl-oxidized glutathione, N,N'-diacetyl oxidized glutathione] (I: Ac-[γGlu]-Cys-Gly-OH / II: Ac-[γGlu]-Cys-Gly-OH; disulfide I:2-II:2) | – | – | – | – | – | – | – | – | 221.4 ± 18.6 µg/mg | 198.1 ± 8.5 µg/mg | significantly inhibiting melanin formation | – |
| 100% | 100% | > 554 mg/mL | N[C@@H](CCC(=O)N[C@@H](CSSC[C@H](NC(=O)CC[C@H](N)C(=O)O)C(=O)O)C(=O)O)C(=O)O [γ-L-glutamyl-L-cysteine disulfide] | – | 189.3 ± 10.56 µg/mg | 155.6 ± 7.68 µg/mg | – | – | – | – | – | – | – | significantly inhibiting melanin formation | 154.7 ± 12.16 µg/mg |
| 100% | 100% | > 742 mg/mL | N[C@@H](CCC(=O)N[C@@H](CSSC[C@H](N)C(=O)O)C(=O)O)C(=O)O [γ-L-glutamyl-L-cystine] | – | – | – | – | – | – | – | – | – | – | – | – |
